# Data: ChEMBL document CHEMBL1128992, “A Non-peptidic photoactivatable antagonist for mapping the antagonist binding site of the tachykinin NK2 receptor” (Bioorg Med Chem Lett, 1996)
# Target: T1, Substance-K receptor (Homo sapiens, UniProt P21452)
# T1 sequence (P21452 whole entry): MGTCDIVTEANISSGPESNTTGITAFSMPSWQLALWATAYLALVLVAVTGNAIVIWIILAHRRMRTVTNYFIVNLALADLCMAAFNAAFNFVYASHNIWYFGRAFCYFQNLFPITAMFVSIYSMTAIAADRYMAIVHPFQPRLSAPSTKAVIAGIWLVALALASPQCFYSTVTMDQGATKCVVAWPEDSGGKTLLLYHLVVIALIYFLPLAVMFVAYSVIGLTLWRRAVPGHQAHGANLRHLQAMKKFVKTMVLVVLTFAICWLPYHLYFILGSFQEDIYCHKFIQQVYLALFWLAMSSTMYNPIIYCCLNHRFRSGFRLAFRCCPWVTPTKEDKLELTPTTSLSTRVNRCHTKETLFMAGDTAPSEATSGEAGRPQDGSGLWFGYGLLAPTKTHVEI
# Experiment: Binding affinity was determined against human NK2 receptor in CHO cells using [125I]neurokinin A as radioligand
# Format: cell-based
structure (smiles),measurement,value
CN(CC(CCN1CCC(O)(c2ccccc2)CC1)c1ccc(Cl)c(Cl)c1)C(=O)c1cccc(C2(C(F)(F)F)N=N2)c1 (racemic),IC50,6.7 nM
CC(=O)NC1(c2ccccc2)CCN(CC[C@H](CN(C)C(=O)c2ccccc2)c2ccc(Cl)c(Cl)c2)CC1 (racemic) [SAREDUTANT],IC50,0.8 nM
